The test system of one assay is mice. The settings on record: cited from earlier work.
A further assay deals with T1, cytosolic PLA2 (Bos taurus, UniProt A4IFJ5).
T1 construct: endogenous in cells; host or cells: intact bovine platelets
T1 sequence (A4IFJ5 1-749): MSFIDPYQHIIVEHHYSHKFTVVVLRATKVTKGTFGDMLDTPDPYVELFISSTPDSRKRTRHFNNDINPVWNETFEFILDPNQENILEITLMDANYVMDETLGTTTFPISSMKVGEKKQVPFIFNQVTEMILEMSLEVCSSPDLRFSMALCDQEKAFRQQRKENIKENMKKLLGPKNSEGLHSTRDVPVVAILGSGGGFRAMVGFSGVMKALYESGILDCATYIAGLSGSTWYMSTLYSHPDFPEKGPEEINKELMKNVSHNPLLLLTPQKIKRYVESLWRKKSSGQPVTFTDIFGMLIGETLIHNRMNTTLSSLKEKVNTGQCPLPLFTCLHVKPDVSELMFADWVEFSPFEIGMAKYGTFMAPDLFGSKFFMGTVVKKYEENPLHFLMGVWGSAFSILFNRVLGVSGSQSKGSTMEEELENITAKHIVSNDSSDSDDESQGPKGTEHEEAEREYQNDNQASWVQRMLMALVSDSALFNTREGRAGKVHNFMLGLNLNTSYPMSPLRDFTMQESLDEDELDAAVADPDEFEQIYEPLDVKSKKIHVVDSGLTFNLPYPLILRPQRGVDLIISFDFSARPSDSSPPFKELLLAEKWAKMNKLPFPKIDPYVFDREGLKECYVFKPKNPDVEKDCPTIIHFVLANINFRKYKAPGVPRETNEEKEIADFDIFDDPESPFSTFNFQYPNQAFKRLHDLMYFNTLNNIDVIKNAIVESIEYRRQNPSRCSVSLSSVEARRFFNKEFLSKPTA
Briefly: Inhibition of cytosolic phospholipase A2 in intact bovine platelets stimulated with calcium ionophore A23187; released arachidonic acid determined by reversed phase HPLC with UV detection. The assay is classed as cell-based. The settings on record: A23187 stimulation, 5,8,11,14-eicosatetraynoic acid added, test substances normally dissolved in DMSO. From the text: The efficacy of the compounds according to the invention can be determined on the basis of the inhibition of phospholipase A2. For this purpose, the phospholipaase A2 in intact bovine platelets is stimulated with calcium ionophore A23187, and thus the release of arachidonic acid from the membrane phospholipids is induced. In order to prevent metabolism of the enzyme product arachidonic acid by the cyclooxygenase pathway and the 12-lipoxygenase pathway, in this case the dual cyclooxygenase/12-lipoxygenase inhibitor 5,8,11,14-eicosatetraynoic acid is added. After purification by solid phase extraction, the released arachidonic acid is determined by reversed phase HPLC with UV detection. The inhibition of the enzyme by a test substance is evident from the ratio between the amounts of arachidonic acid formed in the presence and in the absence of the test substance. Further details of the test system are to be found in Example 15.
The efficacy of the compounds according to the invention can be determined from the inhibition of phospholipase A2. The assay method used has already been described (see Lehr M., In-vitro assay for the evaluation of phospholipase A2 inhibitors using bovine platelets and HPLC with UV-detection. Pharm.Pharmacol. Lett. 1992, 2, 176-179). The test substances were normally dissolved in DMSO.

For the compound `Cn1c(C(=O)O)ccc1C(=O)C=Cc1ccccc1` [1-methyl-5-(3-phenylacryloyl)pyrrol-2-ylformic acid], the analgesic effect result in the assay on mice was “analgesic effect”.

The IC50 is the concentration that inhibits the measured activity by half. For the compound `CCCCCCCCCCCC(=O)c1c(C)c(CC(=O)O)n(Cc2cccc(/C=C/C(=O)O)c2)c1C` [Example 2, (E)-3-{[2-(Carboxymethyl)-4-dodecanoyl-3,5-dimethyl-pyrrol-1-yl]methyl}cinnamic acid], the IC50 at cytosolic PLA2 was determined as 4600 nM.

In the case of `CCCCCCCCCCCC(=O)c1c(C)c(CC(=O)O)n(Cc2cccc(CCC(=O)O)c2)c1C` [Example 3, 3-(3-{[2-(Carboxymethyl)-4-dodecanoyl-3,5-dimethyl-pyrrol-1-yl]methyl}phenyl)propionic acid], the IC50 on cytosolic PLA2 was determined as 3000 nM.

As for `CCCCCCCCCCCC(=O)c1c(C(=O)O)n(CCOc2cccc(CC(=O)O)c2)c2ccccc12` [Example 13, 1-{2-[3-(carboxymethyl)phenoxy]ethyl}-3-dodecanoyl-indole-2-carboxylic acid], the IC50 on cytosolic PLA2 turned out to be 1600 nM.

In the case of `CCCCCCCCCCCC(=O)c1c(C(=O)O)n(CCOc2ccc(CC(=O)O)cc2)c2ccccc12` [Example 14, 1-{2-[4-(Carboxymethyl)phenoxy]ethyl}-3-dodecanoyl-indole-2-carboxylic acid], the IC50 at cytosolic PLA2 is 1600 nM.
